Columns and labels:
Histone deacetylase 9 = Histone deacetylase 9 (Homo sapiens, UniProt Q9UKV0); assay: (§1) Inhibition Assay: The inhibitions of activities of HDAC enzymes by the compounds N1'-[3-fluoro-4-[[7-[4-(hydroxyamino)-4-oxobutoxy]-6-methoxy-4-quinolyl]oxy]phenyl]-N1-(4-fluoro phenyl)cyclopropane-1,1-dicarboxamide prepared in Example 9 and N1'-[3-fluoro-4-[[7-[6-(hydroxyamino)-6-oxohexyloxy]-6-methoxy-4-quinolyl]oxy]phenyl]-N1-(4-fluo rophenyl)cyclopropane-1,1-dicarboxamide prepared in Example 13 were measured by Reaction Biology Corporation (Reaction Biology Corp., One Great Valley Parkway, Suite 2, Malvern, PA 19355, USA . http://www.reactionbiology.com/pages/hdac.htm). The HDAC enzymes tested include the following 11 HDAC isoforms: HDAC1, HDAC2, HDAC3, HDAC4, HDAC5, HDAC6, HDAC7, HDAC8, HDAC9, HDAC10 and HDAC11.Specific steps were as follows: The compound of the present invention was dissolved in dimethyl sulfoxide (DMSO) to make a stock solution of 10 mM. The stock solution was diluted in 4-fold series starting from 10 mM to prepare 10 different dosages.
Histone deacetylase 9, sequence (Q9UKV0 whole entry, canonical isoform): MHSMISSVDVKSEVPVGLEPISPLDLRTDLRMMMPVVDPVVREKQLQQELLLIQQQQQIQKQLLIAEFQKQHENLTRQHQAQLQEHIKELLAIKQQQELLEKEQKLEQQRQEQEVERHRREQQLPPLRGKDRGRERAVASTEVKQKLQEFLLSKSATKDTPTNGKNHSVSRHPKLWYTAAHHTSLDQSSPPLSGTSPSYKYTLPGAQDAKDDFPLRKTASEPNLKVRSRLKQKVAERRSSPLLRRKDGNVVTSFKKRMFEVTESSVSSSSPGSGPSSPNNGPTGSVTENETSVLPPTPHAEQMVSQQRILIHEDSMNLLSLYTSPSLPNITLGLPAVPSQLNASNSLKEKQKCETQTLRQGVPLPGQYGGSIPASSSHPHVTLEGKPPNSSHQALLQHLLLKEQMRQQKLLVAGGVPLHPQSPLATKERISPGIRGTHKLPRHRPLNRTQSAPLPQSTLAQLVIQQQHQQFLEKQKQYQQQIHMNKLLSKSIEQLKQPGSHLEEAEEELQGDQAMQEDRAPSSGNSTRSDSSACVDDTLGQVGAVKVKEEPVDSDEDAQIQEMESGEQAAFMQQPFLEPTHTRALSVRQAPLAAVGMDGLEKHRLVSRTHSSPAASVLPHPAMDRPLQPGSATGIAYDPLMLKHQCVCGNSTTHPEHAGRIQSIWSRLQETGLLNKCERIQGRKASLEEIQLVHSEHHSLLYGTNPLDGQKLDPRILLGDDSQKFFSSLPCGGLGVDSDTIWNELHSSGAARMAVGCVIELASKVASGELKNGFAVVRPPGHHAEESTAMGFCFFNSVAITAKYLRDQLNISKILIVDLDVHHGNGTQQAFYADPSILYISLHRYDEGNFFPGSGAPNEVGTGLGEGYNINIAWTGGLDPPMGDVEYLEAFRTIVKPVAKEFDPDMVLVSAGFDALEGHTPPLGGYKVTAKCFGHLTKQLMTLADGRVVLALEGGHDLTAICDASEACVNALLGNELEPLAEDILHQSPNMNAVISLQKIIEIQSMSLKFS

Histone deacetylase 3 = Histone deacetylase 3 (Homo sapiens, UniProt O15379); assay: as §1
Histone deacetylase 3, sequence (O15379 whole entry): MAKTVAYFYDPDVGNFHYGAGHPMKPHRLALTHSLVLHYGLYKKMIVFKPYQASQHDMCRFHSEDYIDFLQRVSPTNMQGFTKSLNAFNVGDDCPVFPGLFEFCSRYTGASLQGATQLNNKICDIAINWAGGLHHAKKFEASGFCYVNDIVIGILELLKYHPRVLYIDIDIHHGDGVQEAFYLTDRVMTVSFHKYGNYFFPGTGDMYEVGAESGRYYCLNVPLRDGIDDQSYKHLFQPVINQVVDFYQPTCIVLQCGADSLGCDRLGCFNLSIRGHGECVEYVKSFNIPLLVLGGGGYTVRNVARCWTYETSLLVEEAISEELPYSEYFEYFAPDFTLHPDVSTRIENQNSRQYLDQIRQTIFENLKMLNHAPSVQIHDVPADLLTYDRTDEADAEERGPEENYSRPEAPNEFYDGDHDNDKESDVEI

Histone deacetylase 2 = Histone deacetylase 2 (Homo sapiens, UniProt Q92769); assay: as §1
Histone deacetylase 2, sequence (Q92769 whole entry): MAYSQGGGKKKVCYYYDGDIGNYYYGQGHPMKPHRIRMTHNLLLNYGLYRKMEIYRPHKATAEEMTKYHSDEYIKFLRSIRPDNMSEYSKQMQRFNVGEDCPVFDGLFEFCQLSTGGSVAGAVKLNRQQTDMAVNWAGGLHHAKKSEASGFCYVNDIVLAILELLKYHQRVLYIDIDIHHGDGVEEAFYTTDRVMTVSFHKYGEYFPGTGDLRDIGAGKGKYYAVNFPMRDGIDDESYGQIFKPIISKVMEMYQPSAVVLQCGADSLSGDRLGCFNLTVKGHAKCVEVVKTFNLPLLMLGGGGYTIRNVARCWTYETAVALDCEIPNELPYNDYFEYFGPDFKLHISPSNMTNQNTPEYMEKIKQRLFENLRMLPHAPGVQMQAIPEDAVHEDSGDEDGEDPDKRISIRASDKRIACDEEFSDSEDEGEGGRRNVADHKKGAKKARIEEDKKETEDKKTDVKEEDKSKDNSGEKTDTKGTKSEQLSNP

Histone deacetylase 8 = biological target: T1, Histone deacetylase 8 (Homo sapiens, UniProt Q9BY41); assay: as §1
T1 sequence (Q9BY41 whole entry): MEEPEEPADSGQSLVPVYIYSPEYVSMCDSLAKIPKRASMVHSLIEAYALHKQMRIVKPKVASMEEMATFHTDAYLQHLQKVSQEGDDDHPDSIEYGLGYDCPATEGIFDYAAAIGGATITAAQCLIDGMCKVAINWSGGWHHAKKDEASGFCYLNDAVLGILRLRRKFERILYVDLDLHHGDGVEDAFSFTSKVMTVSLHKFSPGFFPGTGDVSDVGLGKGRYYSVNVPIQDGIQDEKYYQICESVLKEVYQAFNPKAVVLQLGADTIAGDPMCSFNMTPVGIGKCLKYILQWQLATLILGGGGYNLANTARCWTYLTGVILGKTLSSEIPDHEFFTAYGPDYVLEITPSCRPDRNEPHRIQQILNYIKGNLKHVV

[1] = biological target: T2, Polyamine deacetylase HDAC10 (Homo sapiens, UniProt Q969S8); assay: as §1
T2 sequence (Q969S8 whole entry): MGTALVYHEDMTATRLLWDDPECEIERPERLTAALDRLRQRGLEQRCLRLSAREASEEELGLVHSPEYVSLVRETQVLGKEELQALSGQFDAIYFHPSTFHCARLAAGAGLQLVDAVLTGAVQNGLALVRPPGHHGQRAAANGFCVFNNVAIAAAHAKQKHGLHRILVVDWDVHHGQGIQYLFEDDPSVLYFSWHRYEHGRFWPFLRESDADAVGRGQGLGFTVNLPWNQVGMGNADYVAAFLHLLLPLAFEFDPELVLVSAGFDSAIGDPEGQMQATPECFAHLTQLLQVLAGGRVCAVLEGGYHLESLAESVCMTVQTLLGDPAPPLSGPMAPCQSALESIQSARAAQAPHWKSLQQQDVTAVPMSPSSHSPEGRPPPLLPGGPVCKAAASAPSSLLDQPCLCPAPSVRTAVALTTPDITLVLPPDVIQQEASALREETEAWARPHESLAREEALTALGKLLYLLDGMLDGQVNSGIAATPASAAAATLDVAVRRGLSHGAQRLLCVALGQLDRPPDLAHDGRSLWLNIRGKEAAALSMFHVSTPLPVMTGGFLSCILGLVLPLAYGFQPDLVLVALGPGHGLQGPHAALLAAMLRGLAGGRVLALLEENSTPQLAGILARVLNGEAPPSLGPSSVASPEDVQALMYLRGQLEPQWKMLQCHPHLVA

[2] = biological target: T3, Protein deacetylase HDAC6 (Homo sapiens, UniProt Q9UBN7); assay: as §1
T3 sequence (Q9UBN7 whole entry): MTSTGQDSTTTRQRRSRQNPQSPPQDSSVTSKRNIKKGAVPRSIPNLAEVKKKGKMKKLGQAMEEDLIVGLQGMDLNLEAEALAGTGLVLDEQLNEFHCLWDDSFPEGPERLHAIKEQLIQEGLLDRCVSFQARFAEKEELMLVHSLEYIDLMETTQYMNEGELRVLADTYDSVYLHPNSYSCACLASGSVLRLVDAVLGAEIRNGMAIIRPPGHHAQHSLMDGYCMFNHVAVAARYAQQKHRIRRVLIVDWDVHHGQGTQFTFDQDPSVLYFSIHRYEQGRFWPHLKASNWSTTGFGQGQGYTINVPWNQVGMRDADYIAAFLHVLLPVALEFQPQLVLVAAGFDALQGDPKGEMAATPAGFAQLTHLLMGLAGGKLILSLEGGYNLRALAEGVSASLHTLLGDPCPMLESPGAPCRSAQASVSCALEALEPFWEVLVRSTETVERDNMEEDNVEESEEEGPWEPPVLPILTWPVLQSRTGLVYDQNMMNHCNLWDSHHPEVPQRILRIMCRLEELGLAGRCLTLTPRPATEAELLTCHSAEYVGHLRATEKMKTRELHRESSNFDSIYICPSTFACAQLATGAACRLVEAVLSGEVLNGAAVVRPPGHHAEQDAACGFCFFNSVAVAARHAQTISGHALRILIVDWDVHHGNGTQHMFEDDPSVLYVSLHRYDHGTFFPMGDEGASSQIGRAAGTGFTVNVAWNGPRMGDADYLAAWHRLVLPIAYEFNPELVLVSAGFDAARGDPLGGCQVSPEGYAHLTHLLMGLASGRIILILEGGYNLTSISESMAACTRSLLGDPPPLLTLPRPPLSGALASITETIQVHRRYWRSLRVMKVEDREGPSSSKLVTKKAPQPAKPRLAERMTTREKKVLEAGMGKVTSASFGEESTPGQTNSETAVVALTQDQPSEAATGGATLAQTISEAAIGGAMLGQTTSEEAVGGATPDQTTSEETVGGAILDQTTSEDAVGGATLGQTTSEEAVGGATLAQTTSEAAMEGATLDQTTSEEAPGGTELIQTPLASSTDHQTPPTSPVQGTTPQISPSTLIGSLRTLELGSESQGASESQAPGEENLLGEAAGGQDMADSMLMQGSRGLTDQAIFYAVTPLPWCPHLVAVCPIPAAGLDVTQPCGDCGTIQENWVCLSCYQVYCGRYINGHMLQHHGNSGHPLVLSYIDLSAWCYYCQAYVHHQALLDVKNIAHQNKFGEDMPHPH

Histone deacetylase 5 = Histone deacetylase 5 (Homo sapiens, UniProt Q9UQL6); assay: as §1
Histone deacetylase 5, sequence (Q9UQL6 whole entry): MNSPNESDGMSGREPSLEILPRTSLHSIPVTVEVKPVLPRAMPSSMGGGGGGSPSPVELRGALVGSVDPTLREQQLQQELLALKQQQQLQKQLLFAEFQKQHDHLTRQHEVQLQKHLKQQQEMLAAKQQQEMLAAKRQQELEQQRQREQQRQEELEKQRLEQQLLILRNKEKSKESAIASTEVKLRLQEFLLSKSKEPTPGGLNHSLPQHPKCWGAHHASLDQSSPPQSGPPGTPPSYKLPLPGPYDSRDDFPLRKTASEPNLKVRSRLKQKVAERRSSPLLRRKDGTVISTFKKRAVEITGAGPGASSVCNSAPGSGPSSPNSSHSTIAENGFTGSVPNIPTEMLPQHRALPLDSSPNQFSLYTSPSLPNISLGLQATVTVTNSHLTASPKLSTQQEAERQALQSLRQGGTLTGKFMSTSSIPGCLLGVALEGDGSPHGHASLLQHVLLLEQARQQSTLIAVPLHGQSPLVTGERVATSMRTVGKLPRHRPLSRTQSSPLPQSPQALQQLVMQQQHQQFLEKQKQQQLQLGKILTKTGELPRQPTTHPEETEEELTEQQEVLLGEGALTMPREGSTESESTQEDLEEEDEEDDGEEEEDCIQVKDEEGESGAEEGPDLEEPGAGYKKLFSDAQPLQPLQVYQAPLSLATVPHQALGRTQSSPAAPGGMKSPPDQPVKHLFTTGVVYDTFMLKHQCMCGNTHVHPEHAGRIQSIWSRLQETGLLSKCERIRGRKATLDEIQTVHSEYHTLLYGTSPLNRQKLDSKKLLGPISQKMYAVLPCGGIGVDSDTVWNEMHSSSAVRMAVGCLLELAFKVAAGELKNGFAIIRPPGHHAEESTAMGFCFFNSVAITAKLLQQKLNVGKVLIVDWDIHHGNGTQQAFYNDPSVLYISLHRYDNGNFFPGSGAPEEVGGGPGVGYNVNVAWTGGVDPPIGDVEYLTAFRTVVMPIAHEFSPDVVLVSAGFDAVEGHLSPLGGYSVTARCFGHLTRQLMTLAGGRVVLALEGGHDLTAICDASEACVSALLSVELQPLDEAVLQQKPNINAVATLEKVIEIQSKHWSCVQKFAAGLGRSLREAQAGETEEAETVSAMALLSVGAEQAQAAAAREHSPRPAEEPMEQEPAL

Histone deacetylase 1 = Histone deacetylase 1 (Homo sapiens, UniProt Q13547); assay: as §1
Histone deacetylase 1, sequence (Q13547 whole entry): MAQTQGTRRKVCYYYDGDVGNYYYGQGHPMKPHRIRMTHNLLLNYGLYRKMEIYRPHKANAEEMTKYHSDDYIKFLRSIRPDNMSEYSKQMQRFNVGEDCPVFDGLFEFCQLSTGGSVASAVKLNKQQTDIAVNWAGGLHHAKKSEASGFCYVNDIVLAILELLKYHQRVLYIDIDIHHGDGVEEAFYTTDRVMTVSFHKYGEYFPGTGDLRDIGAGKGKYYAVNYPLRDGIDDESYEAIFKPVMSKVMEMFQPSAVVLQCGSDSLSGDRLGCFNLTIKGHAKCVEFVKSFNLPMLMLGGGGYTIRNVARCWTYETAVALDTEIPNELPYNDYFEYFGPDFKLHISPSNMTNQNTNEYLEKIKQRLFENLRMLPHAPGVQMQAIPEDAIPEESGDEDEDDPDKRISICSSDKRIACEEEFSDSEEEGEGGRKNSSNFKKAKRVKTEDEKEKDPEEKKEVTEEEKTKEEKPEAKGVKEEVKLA

Histone deacetylase 4 = Histone deacetylase 4 (Homo sapiens, UniProt P56524); assay: as §1
Histone deacetylase 4, sequence (P56524 whole entry): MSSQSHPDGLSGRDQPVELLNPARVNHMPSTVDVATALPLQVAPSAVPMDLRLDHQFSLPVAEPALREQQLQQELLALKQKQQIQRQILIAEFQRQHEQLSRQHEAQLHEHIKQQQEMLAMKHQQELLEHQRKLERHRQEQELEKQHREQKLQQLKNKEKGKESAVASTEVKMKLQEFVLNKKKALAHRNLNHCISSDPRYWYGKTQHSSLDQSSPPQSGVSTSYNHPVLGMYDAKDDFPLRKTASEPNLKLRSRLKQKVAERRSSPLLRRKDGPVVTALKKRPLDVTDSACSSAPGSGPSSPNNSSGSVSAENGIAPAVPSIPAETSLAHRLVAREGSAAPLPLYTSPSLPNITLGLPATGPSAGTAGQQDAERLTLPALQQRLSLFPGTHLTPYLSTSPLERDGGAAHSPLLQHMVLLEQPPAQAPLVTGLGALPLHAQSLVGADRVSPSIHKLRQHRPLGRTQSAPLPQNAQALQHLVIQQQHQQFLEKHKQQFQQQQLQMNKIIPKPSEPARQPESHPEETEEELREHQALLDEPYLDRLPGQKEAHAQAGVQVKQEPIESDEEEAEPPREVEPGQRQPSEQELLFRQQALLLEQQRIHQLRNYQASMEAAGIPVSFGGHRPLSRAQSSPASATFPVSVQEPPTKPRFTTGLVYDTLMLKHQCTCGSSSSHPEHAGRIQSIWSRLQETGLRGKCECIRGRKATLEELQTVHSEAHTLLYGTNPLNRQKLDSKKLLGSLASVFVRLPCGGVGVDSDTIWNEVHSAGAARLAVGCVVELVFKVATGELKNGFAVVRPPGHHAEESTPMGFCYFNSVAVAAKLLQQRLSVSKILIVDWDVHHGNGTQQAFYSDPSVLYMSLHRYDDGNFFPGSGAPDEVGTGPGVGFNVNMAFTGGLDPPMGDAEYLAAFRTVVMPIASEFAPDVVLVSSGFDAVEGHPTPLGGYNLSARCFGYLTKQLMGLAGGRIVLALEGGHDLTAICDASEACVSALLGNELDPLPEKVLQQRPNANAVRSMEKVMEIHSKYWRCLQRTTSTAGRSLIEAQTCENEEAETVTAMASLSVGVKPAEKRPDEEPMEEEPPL

SMILES: COc1cc2c(Oc3ccc(NC(=O)C4(C(=O)Nc5ccc(F)cc5)CC4)cc3F)ccnc2cc1OCCCCCC(=O)NO
- IC50 (Histone deacetylase 9): > 10 µM
- IC50 (Histone deacetylase 3): > 10 µM
- IC50 (Histone deacetylase 2): 2.74 µM
- IC50 (Histone deacetylase 8): 1.63 µM
- IC50 [1]: 11.9 µM
- IC50 [2]: 0.0083 µM
- IC50 (Histone deacetylase 5): > 10 µM
- IC50 (Histone deacetylase 1): > 10 µM
- IC50 (Histone deacetylase 4): > 10 µM

SMILES: COc1cc2c(Oc3ccc(NC(=O)C4(C(=O)Nc5ccc(F)cc5)CC4)cc3F)ccnc2cc1OCCCC(=O)NO
- IC50 (Histone deacetylase 9): > 10 µM
- IC50 (Histone deacetylase 3): > 10 µM
- IC50 (Histone deacetylase 2): 0.431 µM
- IC50 (Histone deacetylase 8): 8.94 µM
- IC50 [1]: > 10 µM
- IC50 [2]: 0.242 µM
- IC50 (Histone deacetylase 5): > 10 µM
- IC50 (Histone deacetylase 1): > 10 µM
- IC50 (Histone deacetylase 4): > 10 µM
